# In US20220227765A1, “PYRIDO-INDOLE ANALOGUES AS GPX4 INHIBITORS” (Ferro Therapeutics, Inc., priority 2019, published 2022):
# Read-outs that look alike come from different tables or passages of the source.
# Experiments:
# [1] = Equilibrium solubility at different pHs and with SBECD; assay type: physicochemical; conditions: thermodynamic from solid
# A431 = assay: Cell proliferation (Alamar Blue) assay, A431; assay type: cell-based, human; conditions: Homo sapiens, A-431, 24 h, Table B-3, A431 cells
# Outline: (§1)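 Alamar Blue fluorescence (540 nm excitation, 590 nm emission, 1.5 h reagent incubation) measured viability after 24 h compound exposure at 37° C./5% CO2. Compounds spanned 10-0.0005 μM in 3-fold steps with 1% final DMSO, on cells pre-seeded 16-24 h at 5000/well. IC50 values were derived by variable-slope dose-response fitting.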
# [2] = Kinetic solubility (PBS, pH 7.4); assay type: physicochemical; conditions: aqueous buffer, kinetic from dmso stock
# [3] = CD-1 Mouse Whole Blood Stability Assay; assay type: in vitro ADME; conditions: Table B-6, incubation at 37° C.
# SJSA-1 = assay: Cell proliferation (Alamar Blue) assay, SJSA-1; assay type: cell-based, human; conditions: Homo sapiens, SJSA-1, 24 h, Table B-3, head prints SJSB-1, 24 h, read-out: IC50 (μM) SJSB-1
# Outline: as §1
# [4] = Mouse plasma protein % unbound (ultracentrifuge method); assay type: in vitro ADME; conditions: for Mouse Plasma Protein % Unbound (Ultracentrifuge method, 4 h at 37° C.): Table B-6; for fraction unbound at 4 h: mouse, plasma, Table B-6, 4 h at 37° C.
# 786-O = assay: Cell proliferation (Alamar Blue) assay, 786-O; assay type: cell-based, human; conditions: Homo sapiens, 786-0, 24 h, Table B-3, 786-O cells
# Outline: as §1
# Human blood stability = assay type: in vitro ADME
# in vitro = conditions: CD-1, mouse, plasma
# [5] = CD-1, mouse, plasma, 2 μM
# [6] = Human hepatocyte metabolic stability; assay type: in vitro ADME
# [7] = Rat hepatocyte metabolic stability; assay type: in vitro ADME
# [8] = Rat IV pharmacokinetics (2 mg/kg); assay type: in vivo; conditions: male, SD, plasma
# Description: Institutional Animal Ethical Committee (IAEC) of Jubilant Biosys (IAEC/JDC/2019/188R (for Mice) and IAEC/JDC/2019/189R (for Rat) nominated by CPCSEA (Committee for the Purpose of Control and Supervision of Experiments on Animals) approved the mice and rat pharmacokinetic experiments. Male Balb/c mice (˜6-8 weeks old with body weight range of 22-25 g) and male SD rats (6-8 weeks old with body weight range of 200-250 g) were procured from Vivo Biotech, Hyderabad, India. Animals were quarantined in Jubilant Biosys Animal House for a period of 7 days with a 12:12 h light: dark cycles, and prior to the study the animals were stratified as per body weight.
# B) Procedure for rat: Intravenous and oral pharmacokinetics study was done at a dose 2 and 10 mg/kg at dose volume of 2 and 10 mL/Kg. Serial blood sampling was done and at each time point (˜200 μL) were collected from retro-orbital plexus at 0.083 (Only for IV), 0.25, 0.5, 1, 2, 4, 8, 10 (only for PO) and 24 h. Blood samples were collected in tubes containing K2.EDTA as anticoagulant and centrifuged for 5 min at 10,000 rpm in a refrigerated centrifuge (Biofuge, Heraeus, Germany) maintained at 4° C. for plasma separation.
# Group I (IV) received test compound intravenously by tail vein at 2 mg/Kg in solution formulation prepared using 30% Kolliphore EL in WFI; dose volume: 2 mL/Kg; strength: 1 mg/mL.
# Blood concentration-time data of test compound was analyzed by non-compartmental method using Phoenix WinNonlin Version 8.1.
SMILES,IC50 (A431) [µM],CD-1 Mouse Whole Blood Stability % Remaining ([3]; 0 min) [%],CD-1 Mouse Whole Blood Stability % Remaining ([3]; 30 min) [%],CD-1 Mouse Whole Blood Stability % Remaining ([3]; 60 min) [%],IC50 (SJSA-1) [µM],IC50 (786-O) [µM],fraction unbound at 4 h [4],further results
C#CC(=O)N1[C@@H](CCCC)Cc2c([nH]c3c(F)cc(F)cc23)[C@@H]1C12CC(N)(C1)C2.Cl [Compound B-22],5.3,100.0,70.3,55.0,0.047,0.031,0.037,–
CCCC[C@H]1Cc2c([nH]c3c(F)cc(F)cc23)[C@H](c2ccc(N3CCN(C)CC3)c(C#N)c2)N1C(=O)CCl [Compound B-27],2,100.0,78.0,72.7,0.005,0.005,0.078,solubility kinetic ([2]; Table B-4): < 1 µM; human blood stability % remaining (Human blood stability; 15 min): 38%_15; human blood stability % remaining (Human blood stability; 30 min): 4%_30; human blood stability % remaining (Human blood stability; 45 min): 1%_45; human blood stability % remaining (Human blood stability; 60 min): 0%_60; human blood stability % remaining (Human blood stability; 120 min): 0%_120
C#CC(=O)N1[C@@H](CCCC)Cc2c([nH]c3c(F)cc(F)cc23)[C@@H]1C1CCNCC1.Cl [Compound B-26],7.5,100.0,44.7,26.7,0.08,0.177,0.061,–
C#CC(=O)N1[C@@H](CCCC)Cc2c([nH]c3c(F)cc(F)cc23)[C@@H]1C1CCCCC1 [Compound B-56],–,–,–,–,–,–,–,fraction unbound at 2 μM (in vitro): 0.11; % Bound [5]: 89.0%; % Remaining (t = 4 hr at 37 C.) ([5]; 4 h): 56.7%

# Further lines, with some results ahead:
IC50 (A431) [µM],CD-1 Mouse Whole Blood Stability % Remaining ([3]; 0 min) [%],CD-1 Mouse Whole Blood Stability % Remaining ([3]; 30 min) [%],CD-1 Mouse Whole Blood Stability % Remaining ([3]; 60 min) [%],IC50 (SJSA-1) [µM],IC50 (786-O) [µM],fraction unbound at 4 h [4],SMILES,further results
> 10,100.0,1.9,0.5,0.052,0.03,–,C#CC(=O)N1[C@@H](CCCC)Cc2c([nH]c3c(F)cc(F)cc23)[C@@H]1c1cccnc1 [Compound B-30],"solubility ([1]; aqueous buffer, pH 3.0, read-out: Eq. solubility pH 3.0): 700 µg/mL; solubility ([1]; aqueous buffer, pH 3.0 PBS buffer, read-out: Eq. solubility pH 3.0 PBS buffer): 490 µg/mL; solubility ([1]; aqueous with cosolvent or surfactant or cyclodextrin, 20% SBECD (sulfobutyl ether cyclodextrin), read-out: Eq. solubility 20% SBECD): 240 µg/mL; solubility kinetic ([2]; Table B-7): < 1 µM; Mouse Plasma Protein % Unbound (Ultracentrifuge method, 4 h at 37° C.) [4]: Not stable"
> 10,100.0,18.0,3.9,0.037,0.034,–,C#CC(=O)N1[C@@H](CCCC)Cc2c([nH]c3c(F)cc(F)cc23)[C@@H]1c1ccc(C2COC2)cc1 [Compound B-29],"Mouse Plasma Protein % Unbound (Ultracentrifuge method, 4 h at 37° C.) [4]: Not stable"
6.7,–,–,–,0.001,0.001,–,O=C(CCl)N1[C@@H](CC2CC2)Cc2c([nH]c3ccccc23)[C@@H]1c1ccc(NC23CC4CC(CC(C4)C2)C3)cc1 [Compound B-36],"human hepatocytes extr. Ratio [6]: 0.13; human hepatocytes % met @ 180 min ([6]; 180 min): 3.5%; half-life ([6]; human hepatocytes, read-out: human hepatocytes T1/2): 41.1 h; hepatocyte CLint ([6]; human hepatocytes, read-out: human hepatocytes h Clintr (μL/min/10^6 cells)): 1.1 µL/min/1e6 cells; solubility kinetic ([2]; Table B-4): < 1 µM; rat hepatocytes extr. Ratio [7]: 0.7; rat hepatocytes % met @ 180 min ([7]; 180 min): 72%; half-life ([7]; rat hepatocytes, read-out: rat hepatocytes T1/2): 1.78 h; hepatocyte CLint ([7]; rat hepatocytes, read-out: rat hepatocytes h Clintr (μL/min/10^6 cells)): 26 µL/min/1e6 cells; AUC(0-t) ([8]; read-out: Rat IV-PK AUC (0-t)): 431 ng·h/mL; clearance ([8]; read-out: Rat IV-PK CL): 87 mL/min/kg; half-life ([8]; read-out: Rat IV-PK T1/2): 0.5 h; Vd ([8]; read-out: Rat IV-PK Vd): 3.5 L/kg; human blood stability % remaining (Human blood stability; 15 min): ~100%_15; human blood stability % remaining (Human blood stability; 30 min): 96%_30; human blood stability % remaining (Human blood stability; 45 min): 82%_45; human blood stability % remaining (Human blood stability; 60 min): 77%_60; human blood stability % remaining (Human blood stability; 120 min): 51%_120"
